The subject of test [1] is PC3/PSC27 xenograft tumors. The test is described as follows: Disease-free survival of tumor-bearing NOD/SCID mice. The test is classed as in vivo. Conditions: PCC1 alone. The text has this: When the tumor volume in the vehicle, MIT, PCC1 and MIT/PCC1 groups exceeds 2000 mm^3, it is considered that severe disease has occurred, and the mice need to be killed in time and the tumor bearing status should be detected. ^, P>0.05; **, P<0.01.
We next compared the survival of animals in different drug-treated groups, primarily in a time-prolonged manner to assess the consequences of tumor progression. In this preclinical cohort, animals were monitored for prostate tumor growth, and severe disease was judged to have occurred once the […] tumor burden in mice was prominent (size ≥2000 mm^3), which was a method used for assessing progression of tumors and other diseases in certain conditions.

The subject of test [2] is SASP factors. The test is described as follows: qRT-PCR of SASP molecules in BLEO-induced senescent PSC27 cells at different PCC1 concentrations. The test is classed as cell-based, human. The procedure: All data are normalized results compared to the CTRL group. *, P<0.05; **, P<0.01.
Total RNA of cells in the growth phase or stasis phase was extracted with Trizol reagent, 1 mL Trizol was added to each T25 culture flask, the cell layer was scraped off with a cell scraper, transferred into a centrifuge tube, and mixed well until not viscous. […] After the RNA was quantified by a spectrophotometer, a small amount of total RNA was taken for 1% agarose electrophoresis to check the status and quality of the RNA. […]
Sample was loaded according to the above standard, and the reaction conditions were: 95° C. pre-denaturation for 15 seconds, then 95° C. for 5 seconds, 60° C. for 31 seconds, 40 cycles; melting curve conditions were 95° C. for 15 seconds, 60° C. for 30 seconds, 95° C. for 15 seconds. […] The expression of (3-actin was used as an internal reference. After the reaction was completed, the amplification of each gene was checked by software analysis, the corresponding threshold cycle number was derived, and the relative expression of each gene was calculated using the 2-AACt method. The peak and waveform of the melting curve was analyzed to determine whether the obtained amplification product was a specific single target fragment. […]

In test [3] the test system is senescent PSC27 cells. The test is described as follows: SA-β-Gal staining of PSC27 under increasing PCC1 concentration. Type of test: cell-based, human. On the procedure:
Senescence-associated (3-galactosidase (SA-β-Gal) staining was performed following a previously reported procedure (Debacq-Chainiaux et al., 2009). Briefly, cells in culture dishes were washed with PBS and fixed at room temperature. Cells were fixed in 2% formaldehyde and 0.2% glutaraldehyde for 3 minutes. SA-β-Gal was used for staining with freshly prepared staining solution overnight at 37° C. Images were taken on the next day and the percentage of positive cells per unit area was calculated.

Test [4] relates to PSC27 cells. The test is described as follows: CCK8 cell viability of proliferating and senescent PSC27 under increasing PCC1. The test is classed as cell-based, human. On the procedure: P value at each PCC1 concentration is the significant difference after comparison between CTRL and BLEO groups. **, P<0.01; ***, P<0.001; ****, P<0.0001.
Pharmacodynamic analysis was conducted on a natural product library (BY-HEALTH) with a total of 41 components, most of which were medicinal plant extracts and had anti-senescence potential. Each product was diluted to a 96-well plate according to a certain concentration gradient, and the density was 5000 cells per well. The medium uses DMEM, and the working concentration of natural product (or compound) is generally controlled at 1 μM to 1 mM. After 3-7 days of drug treatment, cell proliferation was measured with CCK-8 Cell Counting Kit (based on WST-8 principle, Vazyme), and cell apoptosis activity was determined with Caspase 3/7 Activity Kit (Promega).

Here are results for one compound from patent publication US12721832B2, “Anti-senescence plant polyphenol drug downregulating senescence-related secretory phenotype and use thereof” (BYHEALTH CO., LTD., priority 2021, dated 2026).

Regarding `Oc1cc(O)c2c(c1)O[C@H](c1ccc(O)c(O)c1)[C@H](O)[C@H]2c1c(O)cc(O)c2c1O[C@H](c1ccc(O)c(O)c1)[C@H](O)[C@H]2c1c(O)cc(O)c2c1O[C@H](c1ccc(O)c(O)c1)[C@H](O)C2` [PCC1, procyanidin C1], the “survival benefit of single agent” value in test [1] is given as “only a marginal extension of survival”. In addition, the “SASP inhibition at lower or higher concentrations” value in test [2] (compared with 10 μM) is listed as “less effective”. Further, in test [2] (concentration gradient, senescent PSC27), the “working concentration inhibiting SASP development with the greatest efficiency” value amounted to 10 µM. Besides, the senescent cells remaining in test [3] (150 μM PCC1, 80% staining positive without drug) came out at 20%. In addition, the “killing effect at 200 μM versus 150 μM” value in test [3] (200 μM PCC1) is “not further enhanced”. Besides, the “concentration at which killing effect reached a threshold” value in test [3] (senescent PSC27) was found to be 150 µM. In test [3] (senescent PSC27, 0-200 μM), the “concentration from which senescent cells are eliminated (SA-β-Gal staining)” value turned out to be 50 µM. Further, the “survival of proliferating cells” value in test [4] (proliferating PSC27, 200 μM PCC1) is “not significantly reduced”. In addition, the “percentage of surviving senescent cells” value in test [4] (senescent PSC27, 200 μM PCC1) was “approximately 10%”. Moreover, the “concentration from which significant death of senescent cells is induced” value in test [4] (senescent vs control proliferating cells, CCK8) turned out to be 50 µM.
